Data as given in patent US20210255193A1, “LYSINE REACTIVE PROBES AND USES THEREOF” (The Scripps Research Institute, priority 2017, published 2021).

Tests used:
Experiment in all cases: competitive isoTOP-ABPP
Format in all cases: binding
FAM136A Protein FAM136A = target: T1, FAM136A Protein FAM136A (Homo sapiens, UniProt Q96C01); conditions: 50 uM, in vitro; for isoTOP-ABPP ratio (R) at liganded lysine Q96C01_K99: sol, 231; for isoTOP-ABPP reactivity ratio at lysine Q96C01_K99: 231 sol
T1 construct: isoTOP-ABPP experiments performed in cell lysates (in vitro); endogenous in cells; host or cells: soluble proteome of human cancer cell lines (MDA-MB-231; Ramos and Jurkat also prepared)
T1 sequence (Q96C01 whole entry): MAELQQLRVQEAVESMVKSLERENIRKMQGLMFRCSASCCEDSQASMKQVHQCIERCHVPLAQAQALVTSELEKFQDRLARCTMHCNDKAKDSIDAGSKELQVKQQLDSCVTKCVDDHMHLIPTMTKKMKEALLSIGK
Method in brief: (§1)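 Cell lysate (0.5 ml) was pre-treated with fragment, 50 μM for activated esters or 100 μM for guanidinylating agents, versus DMSO, then labeled 1 h at ambient temperature with 0.1 mM STP-alkyne. Light/heavy TEV tags attached by CuAAC; R = DMSO/compound MS1 peak-area ratio, median per lysine.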

TTR Transthyretin = target: T2, TTR Transthyretin (Homo sapiens, UniProt P02766); conditions: 50 uM, in vitro; for isoTOP-ABPP ratio (R) at liganded lysine P02766_K35: sol, 231; for isoTOP-ABPP reactivity ratio at lysine P02766_K35: 231 sol
T2 construct: isoTOP-ABPP experiments performed in cell lysates (in vitro); endogenous in cells; host or cells: MDA-MB-231 soluble lysate
Method in brief: as §1

[1] = target: T3, ATP6V1F V-type proton ATPase subunit F (Homo sapiens, UniProt Q16864); conditions: 50 uM, in vitro; for isoTOP-ABPP ratio (R) at liganded lysine Q16864_K6: sol, 231; for isoTOP-ABPP reactivity ratio at lysine Q16864_K6: 231 sol
T3 construct: isoTOP-ABPP experiments performed in cell lysates (in vitro); endogenous in cells; host or cells: soluble proteome of human cancer cell lines (MDA-MB-231; Ramos and Jurkat also prepared)
T3 sequence (Q16864 whole entry): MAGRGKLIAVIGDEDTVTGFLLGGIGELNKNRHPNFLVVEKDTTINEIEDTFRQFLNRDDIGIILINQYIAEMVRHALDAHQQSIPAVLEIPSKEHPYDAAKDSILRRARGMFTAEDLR
Method in brief: as §1

[2] = target: T4, KIAA1033 WASH complex subunit 7 (Homo sapiens, UniProt Q2M389); conditions: 50 uM, in vitro; for isoTOP-ABPP ratio (R) at liganded lysine Q2M389_K302: sol, 231; for isoTOP-ABPP reactivity ratio at lysine Q2M389_K302: 231 sol
T4 construct: isoTOP-ABPP experiments performed in cell lysates (in vitro); endogenous in cells; host or cells: soluble proteome of human cancer cell lines (MDA-MB-231; Ramos and Jurkat also prepared)
T4 sequence (Q2M389 1-1173): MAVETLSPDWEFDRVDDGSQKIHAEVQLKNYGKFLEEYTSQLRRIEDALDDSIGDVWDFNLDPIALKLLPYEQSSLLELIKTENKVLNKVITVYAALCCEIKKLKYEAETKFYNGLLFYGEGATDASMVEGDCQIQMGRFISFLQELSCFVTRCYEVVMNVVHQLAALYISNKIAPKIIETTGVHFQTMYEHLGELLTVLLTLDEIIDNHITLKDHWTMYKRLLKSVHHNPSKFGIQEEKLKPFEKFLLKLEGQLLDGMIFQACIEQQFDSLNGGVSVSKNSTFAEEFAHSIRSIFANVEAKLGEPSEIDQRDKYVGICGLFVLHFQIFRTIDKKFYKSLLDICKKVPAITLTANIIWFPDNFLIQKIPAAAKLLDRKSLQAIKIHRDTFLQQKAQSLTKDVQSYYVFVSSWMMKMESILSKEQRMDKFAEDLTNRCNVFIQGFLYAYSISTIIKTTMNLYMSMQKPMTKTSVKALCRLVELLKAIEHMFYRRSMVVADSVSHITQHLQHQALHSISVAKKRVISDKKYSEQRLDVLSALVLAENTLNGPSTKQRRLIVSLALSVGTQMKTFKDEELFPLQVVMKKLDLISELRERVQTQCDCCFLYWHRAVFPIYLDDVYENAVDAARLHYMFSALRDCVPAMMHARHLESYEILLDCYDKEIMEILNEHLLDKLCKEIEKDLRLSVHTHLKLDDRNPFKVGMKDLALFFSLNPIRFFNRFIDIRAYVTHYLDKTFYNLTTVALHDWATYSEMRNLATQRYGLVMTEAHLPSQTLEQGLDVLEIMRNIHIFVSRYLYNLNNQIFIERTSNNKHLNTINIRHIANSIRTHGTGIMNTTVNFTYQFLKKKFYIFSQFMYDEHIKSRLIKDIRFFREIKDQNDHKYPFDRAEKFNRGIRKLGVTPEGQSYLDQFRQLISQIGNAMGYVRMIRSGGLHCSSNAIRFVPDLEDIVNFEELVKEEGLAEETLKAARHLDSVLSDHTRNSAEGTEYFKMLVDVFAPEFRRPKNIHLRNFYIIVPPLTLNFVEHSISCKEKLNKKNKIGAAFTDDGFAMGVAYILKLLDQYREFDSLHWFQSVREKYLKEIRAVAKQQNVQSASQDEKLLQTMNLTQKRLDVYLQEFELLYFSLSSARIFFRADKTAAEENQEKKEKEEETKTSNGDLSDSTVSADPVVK
Method in brief: as §1

Row | Compound | isoTOP-ABPP ratio (R) at liganded lysine Q96C01_K99 (FAM136A Protein FAM136A) | isoTOP-ABPP ratio (R) at liganded lysine P02766_K35 (TTR Transthyretin) | isoTOP-ABPP ratio (R) at liganded lysine Q16864_K6 [1] | isoTOP-ABPP ratio (R) at liganded lysine Q2M389_K302 [2] | isoTOP-ABPP reactivity ratio at lysine Q96C01_K99 (FAM136A Protein FAM136A) | isoTOP-ABPP reactivity ratio at lysine P02766_K35 (TTR Transthyretin) | isoTOP-ABPP reactivity ratio at lysine Q16864_K6 [1] | isoTOP-ABPP reactivity ratio at lysine Q2M389_K302 [2]
1 | O=C(Oc1ccc([N+](=O)[O-])cc1[N+](=O)[O-])c1ccc(Oc2ccccc2)cc1 [fragment 39, 2,4-Dinitrophenyl 4-phenoxybenzoate] | 0.8 | 2.2 | 0.9 | 1.2 | – | – | – | –
2 | O=C(Oc1ccc([N+](=O)[O-])cc1[N+](=O)[O-])C(c1ccccc1)c1ccccc1 [fragment 30, 2,4-Dinitrophenyl 2,2-diphenylacetate] | – | – | – | – | 0.8 | 1.5 | 20.0 | 1.6
3 | O=C(CCc1cn(-c2ccccc2)nc1-c1ccccc1)Oc1ccc([N+](=O)[O-])cc1[N+](=O)[O-] [fragment 29, 2,4-Dinitrophenyl 3-(1,3-diphenyl-1H-pyrazol-4-yl)propanoate] | – | – | – | – | 0.8 | 1.6 | 0.8 | 1.1
4 | O=C(CCc1coc2cc(F)ccc2c1=O)Oc1ccc([N+](=O)[O-])cc1[N+](=O)[O-] [fragment 36, 2,4-Dinitrophenyl 3-(7-fluoro-4-oxo-4H-chromen-3-yl)propanoate] | 0.8 | 2.4 | 1.0 | 1.2 | – | – | – | –
